Results on 1 compound are retold here after US20260242336A1, “COMPOSITION FOR PREVENTING OR TREATING CANCER DISEASES COMPRISING ARYL-PIPERIDINE DERIVATIVE” (KOREA RESEARCH INSTITUTE OF CHEMICAL TECHNOLOGY, priority 2023, published 2026).

The term IC50 denotes the concentration at which inhibition is half-maximal.

The target in one data set is T1, TNKS-1 (Homo sapiens, UniProt O95271).
T1 construct: purchased BPS Bioscience 80582
T1 sequence (O95271 1-1327): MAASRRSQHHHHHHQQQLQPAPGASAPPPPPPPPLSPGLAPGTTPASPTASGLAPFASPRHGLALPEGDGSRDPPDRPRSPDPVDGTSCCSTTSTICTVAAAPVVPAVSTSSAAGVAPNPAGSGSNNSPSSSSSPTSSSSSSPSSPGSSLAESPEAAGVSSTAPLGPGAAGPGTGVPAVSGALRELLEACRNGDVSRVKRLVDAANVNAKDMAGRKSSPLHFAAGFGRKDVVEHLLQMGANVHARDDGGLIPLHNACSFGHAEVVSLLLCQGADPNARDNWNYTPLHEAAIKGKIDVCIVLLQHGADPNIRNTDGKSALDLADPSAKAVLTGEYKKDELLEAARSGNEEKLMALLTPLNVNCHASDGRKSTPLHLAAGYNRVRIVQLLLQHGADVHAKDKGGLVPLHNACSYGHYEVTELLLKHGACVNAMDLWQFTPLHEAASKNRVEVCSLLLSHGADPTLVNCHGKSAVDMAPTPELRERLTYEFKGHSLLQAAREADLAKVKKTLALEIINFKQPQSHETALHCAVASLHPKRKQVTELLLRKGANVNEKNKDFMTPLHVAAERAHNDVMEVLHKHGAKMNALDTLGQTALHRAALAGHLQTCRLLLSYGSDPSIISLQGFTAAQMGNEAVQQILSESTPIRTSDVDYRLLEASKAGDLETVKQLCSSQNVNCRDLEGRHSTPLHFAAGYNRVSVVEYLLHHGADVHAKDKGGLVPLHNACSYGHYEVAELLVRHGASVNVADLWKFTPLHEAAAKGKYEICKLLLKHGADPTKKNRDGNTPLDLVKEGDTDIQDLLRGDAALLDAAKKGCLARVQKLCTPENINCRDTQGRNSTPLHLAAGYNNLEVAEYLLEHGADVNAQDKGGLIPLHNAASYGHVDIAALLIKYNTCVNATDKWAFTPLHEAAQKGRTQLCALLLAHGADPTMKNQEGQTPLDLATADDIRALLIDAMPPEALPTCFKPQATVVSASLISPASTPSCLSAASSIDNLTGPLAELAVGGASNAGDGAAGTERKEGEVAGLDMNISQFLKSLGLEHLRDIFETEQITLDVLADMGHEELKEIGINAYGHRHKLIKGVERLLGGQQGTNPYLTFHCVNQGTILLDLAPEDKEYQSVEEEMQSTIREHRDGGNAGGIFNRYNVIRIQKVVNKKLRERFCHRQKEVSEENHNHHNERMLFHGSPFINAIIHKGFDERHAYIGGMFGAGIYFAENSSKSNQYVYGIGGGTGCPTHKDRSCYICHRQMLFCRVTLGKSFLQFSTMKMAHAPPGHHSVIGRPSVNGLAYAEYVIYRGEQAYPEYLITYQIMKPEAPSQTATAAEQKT
Kind of data set: TNKS1 Histone Ribosylation Colorimetric Assay Kit (tankyrase-1 colorimetric activity assay). Format: biochemical.

The target of a further data set is T2, TNKS-2 (Homo sapiens, UniProt Q9H2K2).
T2 sequence (Q9H2K2 1-1166): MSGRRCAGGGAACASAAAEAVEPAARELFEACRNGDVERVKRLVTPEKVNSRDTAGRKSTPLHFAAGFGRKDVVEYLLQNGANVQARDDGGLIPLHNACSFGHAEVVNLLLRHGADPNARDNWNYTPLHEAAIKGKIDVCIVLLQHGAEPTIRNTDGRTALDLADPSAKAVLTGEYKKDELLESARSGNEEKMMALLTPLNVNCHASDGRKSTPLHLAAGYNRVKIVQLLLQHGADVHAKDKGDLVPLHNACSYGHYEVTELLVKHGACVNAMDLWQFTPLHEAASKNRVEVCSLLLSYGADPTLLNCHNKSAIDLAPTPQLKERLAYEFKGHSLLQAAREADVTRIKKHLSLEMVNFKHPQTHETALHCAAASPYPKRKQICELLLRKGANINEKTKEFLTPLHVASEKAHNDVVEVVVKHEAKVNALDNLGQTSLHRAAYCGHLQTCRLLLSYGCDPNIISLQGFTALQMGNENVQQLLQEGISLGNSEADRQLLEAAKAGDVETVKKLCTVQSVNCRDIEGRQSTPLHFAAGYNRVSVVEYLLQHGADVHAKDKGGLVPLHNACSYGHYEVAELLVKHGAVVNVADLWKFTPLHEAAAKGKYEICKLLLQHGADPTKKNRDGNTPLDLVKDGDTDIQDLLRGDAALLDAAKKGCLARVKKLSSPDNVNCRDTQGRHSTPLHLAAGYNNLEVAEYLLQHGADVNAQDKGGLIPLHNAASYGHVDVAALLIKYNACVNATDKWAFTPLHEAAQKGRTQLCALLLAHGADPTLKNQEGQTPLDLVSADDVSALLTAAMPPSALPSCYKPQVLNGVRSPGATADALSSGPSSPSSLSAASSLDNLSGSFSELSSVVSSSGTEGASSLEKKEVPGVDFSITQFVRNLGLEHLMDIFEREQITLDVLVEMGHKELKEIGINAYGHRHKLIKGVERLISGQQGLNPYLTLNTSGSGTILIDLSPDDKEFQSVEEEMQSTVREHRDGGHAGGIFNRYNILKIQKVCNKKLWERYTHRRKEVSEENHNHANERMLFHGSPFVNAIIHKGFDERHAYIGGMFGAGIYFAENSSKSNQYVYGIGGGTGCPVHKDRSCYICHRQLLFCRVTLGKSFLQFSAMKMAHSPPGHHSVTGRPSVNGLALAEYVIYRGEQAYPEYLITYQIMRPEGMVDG
Kind of data set: TNKS-2 enzymatic activity inhibition. Format: biochemical.

For the next data set, the target named is T3, PARP-1 (Homo sapiens, UniProt P09874).
T3 construct: purchased BPS Bioscience 80580
T3 sequence (P09874 whole entry): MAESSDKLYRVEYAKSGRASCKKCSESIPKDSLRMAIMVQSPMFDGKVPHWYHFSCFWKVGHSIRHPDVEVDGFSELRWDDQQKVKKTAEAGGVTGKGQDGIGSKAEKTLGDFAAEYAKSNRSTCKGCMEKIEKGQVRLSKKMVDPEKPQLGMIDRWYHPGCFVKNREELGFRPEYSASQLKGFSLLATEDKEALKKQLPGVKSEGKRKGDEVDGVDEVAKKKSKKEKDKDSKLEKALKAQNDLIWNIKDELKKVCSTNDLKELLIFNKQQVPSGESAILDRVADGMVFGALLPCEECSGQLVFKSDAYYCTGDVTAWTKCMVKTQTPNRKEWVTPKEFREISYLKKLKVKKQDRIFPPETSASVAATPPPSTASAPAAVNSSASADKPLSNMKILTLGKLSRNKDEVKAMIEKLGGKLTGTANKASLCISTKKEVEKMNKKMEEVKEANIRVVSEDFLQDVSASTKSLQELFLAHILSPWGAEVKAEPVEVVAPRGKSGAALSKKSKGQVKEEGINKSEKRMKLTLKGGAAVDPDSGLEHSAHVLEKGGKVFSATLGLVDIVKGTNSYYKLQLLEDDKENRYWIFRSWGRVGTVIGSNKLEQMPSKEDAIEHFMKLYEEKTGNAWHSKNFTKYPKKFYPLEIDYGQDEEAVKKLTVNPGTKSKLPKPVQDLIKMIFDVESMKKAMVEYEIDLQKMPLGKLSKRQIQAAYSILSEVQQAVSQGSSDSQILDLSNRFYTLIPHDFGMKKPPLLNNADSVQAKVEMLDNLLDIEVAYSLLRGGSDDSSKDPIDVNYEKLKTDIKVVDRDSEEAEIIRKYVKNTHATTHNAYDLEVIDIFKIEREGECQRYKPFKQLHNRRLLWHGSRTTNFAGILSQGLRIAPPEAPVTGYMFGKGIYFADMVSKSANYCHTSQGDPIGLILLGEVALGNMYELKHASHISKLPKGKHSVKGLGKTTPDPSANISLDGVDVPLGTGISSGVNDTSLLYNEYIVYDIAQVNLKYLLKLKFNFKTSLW
Kind of data set: PARP-1 colorimetric activity assay kit. Format: biochemical.

The target of another data set is PARP-2 (Homo sapiens, UniProt Q9UGN5). In words: PARP-2 enzymatic activity inhibition. The data set is classed as biochemical.
PARP-2, sequence (Q9UGN5 whole entry): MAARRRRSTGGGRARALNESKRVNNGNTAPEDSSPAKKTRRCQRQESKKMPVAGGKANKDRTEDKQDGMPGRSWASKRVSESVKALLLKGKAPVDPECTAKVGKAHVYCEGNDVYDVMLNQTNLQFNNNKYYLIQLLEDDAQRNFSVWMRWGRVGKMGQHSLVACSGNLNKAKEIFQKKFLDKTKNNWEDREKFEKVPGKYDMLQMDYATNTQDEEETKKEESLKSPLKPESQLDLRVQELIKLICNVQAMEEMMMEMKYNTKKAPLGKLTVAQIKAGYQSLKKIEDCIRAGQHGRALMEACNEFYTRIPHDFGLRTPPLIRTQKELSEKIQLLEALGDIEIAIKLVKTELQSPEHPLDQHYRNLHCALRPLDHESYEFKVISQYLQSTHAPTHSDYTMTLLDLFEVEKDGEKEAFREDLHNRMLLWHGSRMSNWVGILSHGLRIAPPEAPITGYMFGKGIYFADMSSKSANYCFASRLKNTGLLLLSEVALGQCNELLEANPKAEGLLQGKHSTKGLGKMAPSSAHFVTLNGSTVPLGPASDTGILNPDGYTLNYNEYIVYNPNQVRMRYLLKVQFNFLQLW
The test system of data set [1] is beta-catenin transcriptional activity. Kind of data set: TCF/luciferase assay of beta-catenin transcriptional activity in HEK cells. To be noted: Homo sapiens, HEK293, read-out: β-catenin IC50 in HEK cells. Format: cell-based. The method, then:
To determine whether beta-catenin transcriptional activity is inhibited by the aryl-piperidine derivative compounds, compounds TI-61815 and TI-61910 were treated at various concentrations and examined in HEK cells using the TCF/luciferase assay system.

In data set [2] the test system is activated beta-catenin proteins. In words: Western blotting of activated beta-catenin protein in colon cancer cell lines. Format: cell-based, human. As to conditions: COLO320DM and SW403, 10 μM, 24 hours. The source says:
(§1) After protein extraction, proteins were quantified through Western blotting (Bio-Rad, USA).

The subject of another data set is AXIN2 protein. Kind of data set: Western blotting of AXIN2 protein in colon cancer cell lines. As to conditions: COLO320DM and SW403, 10 μM, 24 hours. The data set is classed as cell-based, human.
Source text: as §1

Data set [3] has as its system beta-catenin subgenes (AXIN2, CCND1, cMYC, FGF20). In words: Real-time PCR of beta-catenin subgene expression. The data set is classed as cell-based, human. As to conditions: COLO320DM, 10 μM, 24 hours. The source says:
After RNA extraction, cDNA was synthesized to quantify gene expression via real-time PCR.
A general note: Quantitative PCR measures a nucleic acid by following its amplification.

The test system of data set [4] is colon cancer cell line COLO320DM. In words: Cell viability by colony counting after co-treatment with 5-FU. To be noted: Homo sapiens, COLO 320DM, 240 h, 10 days, read-out: cell viability inhibited when co-treated with 5-FU, compared to the sole treatment. Format: cell-based. The method, then:
Each cell line was purchased from the American Type Culture Collection (ATCC) and cultured respectively in RPMI 1640 (Roswell Park Memorial Institute 1640) medium supplemented with 10% fetal bovine serum (FBS), 100 μg/ml streptomycin, and 100 units/ml penicillin in the presence of 5% CO2 at 37° C.
Afterwards, the cell viability was identified by counting the number of colonies by staining with 1.5% methylene blue.

Data set [5] shares this test system. Kind of data set: Cell viability by colony counting (methylene blue staining). To be noted: 10 days.

Regarding `N#Cc1ccccc1N1CCC(CC(=O)Nc2nnc3ccccn23)CC1` [TI-61815, N-([1,2,4]triazolo[4,3-a]pyridin-3-yl)-2-(1-(2-cyanophenyl)piperidin-4-yl)acetamide], the IC50 worked out at 64 nM against TNKS-1; 49 nM on TNKS-2; 7540 nM on PARP-1; 6060 nM against PARP-2; 830 nM in data set [1]. The inhibition at 10 µM at TNKS-1 (read-out: TNKS-1 inhibitory activity (10 μM), 10 μM compound) was no less than 95%. Also, the “inhibition of enzymatic activity of PARP-1 (in words)” value on PARP-1 (1 μM) is reported as “almost no decrease in the inhibition of enzymatic activity of PARP-1”. Besides, the “levels of the activated beta-catenin proteins” value in data set [2] is given as “inhibited levels of the activated beta-catenin proteins”. Also, the AXIN2 protein levels entry in the data set with AXIN2 protein is on record as “stabilization of AXIN2 protein levels”. Also, the “expression levels of beta-catenin subgenes (AXIN2, CCND1, cMYC, FGF20)” value in [3] is on record as “inhibited the expression levels of beta-catenin subgenes”. Moreover, the cytotoxicity at 5 µM in [4] (5 μM compound + 0.5 μM 5-FU) amounted to 12.4%. Moreover, the cytotoxicity at 10 µM in [4] (10 μM compound + 0.5 μM 5-FU) worked out at 27.8%. Moreover, in data set [5] (2.5 μM to 40 μM), the “cell viability (in words)” value is given as “decreased in a concentration-dependent manner”. In addition, the cell viability inhibited in [5] (40 μM) is 61.4%.
